The conditions of series [1]: 101.33 kPa, Liquid.
Series [2] is described as follows: relative permittivity at various frequencies (dimensionless). Conditions: 101.3 kPa, Liquid, Frequency=1 MHz, HP4284A LCR Meter with HP16452A measuring cell.

Molecules are shown by their SMILES. ± gives the expanded uncertainty stated by the source.

Turning to `COCCOCCOCCOC` [2,5,8,11-tetraoxadodecane], the mass density (usually mass per unit of volume) is 989.16 ± 0.76 kg/m3 in series [1] (288.15 K); 984.16 ± 0.78 kg/m3 in series [1] (293.15 K); 979.61 ± 0.8 kg/m3 in series [1] (298.15 K); 974.85 ± 0.82 kg/m3 in series [1] (303.15 K); 970.85 ± 0.84 kg/m3 in series [1] (308.15 K); 960.67 ± 0.89 kg/m3 in series [1] (318.15 K). In addition, the mass density in series [1] (328.15 K) is given as 951.06 ± 0.94 kg/m3. The relative permittivity was 7.88 ± 0.16 in series [2] (288.15 K); 7.73 ± 0.15 in series [2] (293.15 K); 7.58 ± 0.15 in series [2] (298.15 K); 7.46 ± 0.15 in series [2] (303.15 K); 7.33 ± 0.15 in series [2] (308.15 K); 7.09 ± 0.14 in series [2] (318.15 K). Further, the relative permittivity in series [2] (328.15 K) is 6.88 ± 0.14.

On to `CCCCCCCCCCCC` [dodecane], for which the mass density was found to be 752.44 ± 0.64 kg/m3 in series [1] (288.15 K); 748.8 ± 0.65 kg/m3 in series [1] (293.15 K); 745.19 ± 0.65 kg/m3 in series [1] (298.15 K); 741.57 ± 0.66 kg/m3 in series [1] (303.15 K); 737.93 ± 0.66 kg/m3 in series [1] (308.15 K); 730.7 ± 0.67 kg/m3 in series [1] (318.15 K). Moreover, in series [1] (328.15 K), the mass density came out at 723.32 ± 0.68 kg/m3. Also, the relative permittivity in series [2] (288.15 K) worked out at 2.04 ± 0.04; in series [2] (293.15 K), 2.03 ± 0.04; in series [2] (298.15 K) it was 2.02 ± 0.04; in series [2] (303.15 K), 2.02 ± 0.04; in series [2] (308.15 K) it was 2.01 ± 0.04; in series [2] (318.15 K), 2 ± 0.04. Moreover, the relative permittivity in series [2] (328.15 K) came out at 1.99 ± 0.04.

For `CCCCCCCCC` [nonane], the mass density in series [1] (288.15 K) was found to be 721.77 ± 0.6 kg/m3; in series [1] (293.15 K), 717.76 ± 0.6 kg/m3; in series [1] (298.15 K), 713.77 ± 0.61 kg/m3; in series [1] (303.15 K), 709.89 ± 0.61 kg/m3; in series [1] (308.15 K), 706.2 ± 0.62 kg/m3; in series [1] (318.15 K), 698.14 ± 0.63 kg/m3. In series [1] (328.15 K), the mass density is on record as 690.14 ± 0.64 kg/m3. For the same compound, the relative permittivity is on record as 1.99 ± 0.04 in series [2] (288.15 K); 1.99 ± 0.04 in series [2] (293.15 K); 1.98 ± 0.04 in series [2] (298.15 K); 1.97 ± 0.04 in series [2] (303.15 K); 1.96 ± 0.04 in series [2] (308.15 K); 1.95 ± 0.04 in series [2] (318.15 K). In series [2] (328.15 K), the relative permittivity is on record as 1.94 ± 0.04.

The values above are taken from the NIST ThermoML archive (doi:10.1016/j.jct.2004.08.003).
